BindingDB's records for doi:10.1021/acs.jmedchem.0c00909 (F. Hoffmann-La Roche, 2020)

Target: Neurogenic locus notch homolog protein 1 (Homo sapiens, UniProt P46531)
Test: Inhibition of human Notch1 expressed in HEK293 cells coexpressing luciferase reporter measured after 20 hrs by steady-glo chemiluminescence assay

Chain of Neurogenic locus notch homolog protein 1 (P46531 whole entry): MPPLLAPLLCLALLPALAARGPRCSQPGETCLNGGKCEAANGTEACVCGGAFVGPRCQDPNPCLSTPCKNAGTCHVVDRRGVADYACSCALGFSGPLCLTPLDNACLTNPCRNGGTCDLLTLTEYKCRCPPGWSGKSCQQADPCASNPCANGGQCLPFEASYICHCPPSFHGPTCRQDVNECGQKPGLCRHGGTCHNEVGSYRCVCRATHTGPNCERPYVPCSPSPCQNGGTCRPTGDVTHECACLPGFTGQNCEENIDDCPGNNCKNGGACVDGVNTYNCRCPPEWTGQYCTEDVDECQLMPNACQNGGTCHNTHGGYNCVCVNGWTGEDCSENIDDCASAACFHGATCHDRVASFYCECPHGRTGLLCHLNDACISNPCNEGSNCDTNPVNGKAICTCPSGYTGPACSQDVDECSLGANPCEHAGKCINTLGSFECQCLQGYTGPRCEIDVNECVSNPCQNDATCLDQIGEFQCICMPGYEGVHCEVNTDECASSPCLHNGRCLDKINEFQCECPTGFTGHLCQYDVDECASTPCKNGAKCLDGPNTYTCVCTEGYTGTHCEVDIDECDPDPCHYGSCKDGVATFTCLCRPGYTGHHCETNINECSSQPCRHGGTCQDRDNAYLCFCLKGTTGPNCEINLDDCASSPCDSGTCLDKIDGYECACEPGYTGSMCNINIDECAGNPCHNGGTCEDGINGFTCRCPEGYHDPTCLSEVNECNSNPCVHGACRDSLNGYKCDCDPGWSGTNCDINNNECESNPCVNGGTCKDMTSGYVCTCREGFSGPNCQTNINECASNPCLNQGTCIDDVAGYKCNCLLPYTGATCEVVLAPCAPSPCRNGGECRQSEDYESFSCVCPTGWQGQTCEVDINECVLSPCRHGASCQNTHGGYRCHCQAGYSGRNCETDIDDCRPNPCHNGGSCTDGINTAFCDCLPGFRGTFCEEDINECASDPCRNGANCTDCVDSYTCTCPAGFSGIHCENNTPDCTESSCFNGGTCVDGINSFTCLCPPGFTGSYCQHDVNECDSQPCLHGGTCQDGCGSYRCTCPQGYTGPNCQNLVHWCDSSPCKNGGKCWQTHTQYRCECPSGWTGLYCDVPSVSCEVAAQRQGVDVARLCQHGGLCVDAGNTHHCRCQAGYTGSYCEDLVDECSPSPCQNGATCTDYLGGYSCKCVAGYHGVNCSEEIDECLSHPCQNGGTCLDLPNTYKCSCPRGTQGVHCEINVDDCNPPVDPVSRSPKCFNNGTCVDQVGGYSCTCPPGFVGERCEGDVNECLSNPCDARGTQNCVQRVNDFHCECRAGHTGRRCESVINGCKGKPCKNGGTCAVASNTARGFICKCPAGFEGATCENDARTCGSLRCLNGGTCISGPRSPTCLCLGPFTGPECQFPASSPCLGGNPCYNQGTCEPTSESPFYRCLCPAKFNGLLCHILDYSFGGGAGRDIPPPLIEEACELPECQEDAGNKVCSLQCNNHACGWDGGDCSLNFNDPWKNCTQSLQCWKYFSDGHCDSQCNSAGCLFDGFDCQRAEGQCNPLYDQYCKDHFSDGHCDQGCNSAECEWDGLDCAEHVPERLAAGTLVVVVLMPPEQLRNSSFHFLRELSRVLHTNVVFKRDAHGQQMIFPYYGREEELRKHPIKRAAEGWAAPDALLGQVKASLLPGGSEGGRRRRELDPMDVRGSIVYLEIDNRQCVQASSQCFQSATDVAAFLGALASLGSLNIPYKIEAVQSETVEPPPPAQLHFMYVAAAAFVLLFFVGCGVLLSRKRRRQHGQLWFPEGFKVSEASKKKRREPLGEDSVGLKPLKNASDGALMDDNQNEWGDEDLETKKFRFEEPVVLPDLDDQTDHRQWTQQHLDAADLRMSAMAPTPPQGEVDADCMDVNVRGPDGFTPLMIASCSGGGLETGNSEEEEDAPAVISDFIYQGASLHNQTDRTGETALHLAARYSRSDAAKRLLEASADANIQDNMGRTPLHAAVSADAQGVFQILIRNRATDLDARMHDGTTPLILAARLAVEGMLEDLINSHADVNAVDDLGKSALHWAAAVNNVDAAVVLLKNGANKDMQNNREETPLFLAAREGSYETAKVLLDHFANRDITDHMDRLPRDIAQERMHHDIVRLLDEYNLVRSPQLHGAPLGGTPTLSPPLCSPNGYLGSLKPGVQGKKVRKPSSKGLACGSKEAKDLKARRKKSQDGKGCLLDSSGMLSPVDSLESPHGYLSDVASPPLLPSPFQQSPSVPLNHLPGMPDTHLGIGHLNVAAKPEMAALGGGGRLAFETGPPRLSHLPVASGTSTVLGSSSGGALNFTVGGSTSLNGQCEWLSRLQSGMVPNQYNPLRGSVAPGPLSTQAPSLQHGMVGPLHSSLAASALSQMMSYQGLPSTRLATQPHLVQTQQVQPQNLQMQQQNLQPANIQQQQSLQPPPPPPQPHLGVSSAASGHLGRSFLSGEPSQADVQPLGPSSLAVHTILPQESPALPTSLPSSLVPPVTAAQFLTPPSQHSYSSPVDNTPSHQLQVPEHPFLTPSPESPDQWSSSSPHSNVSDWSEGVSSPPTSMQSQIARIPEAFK

Row | IC50 [µM] | SMILES
1 | > 10 | Cc1noc(N2C[C@H]3CC[C@@H](C2)[C@@H]3Nc2nc3c(OCC(F)(F)F)ccc(C(F)(F)F)n3n2)n1
2 | > 10 | Cc1nnc(N2C[C@H]3CC[C@@H](C2)[C@@H]3Nc2nc3c(O[C@@H](C)C(F)(F)F)ccc(C(F)(F)F)n3n2)o1
3 | > 10 | Cc1cc(N2C[C@H]3CC[C@@H](C2)[C@@H]3Nc2nc3c(OCC(F)F)ccc(C(F)(F)F)n3n2)ncn1
